Assay results from patent US7838271B2, “Microbiological method for producing amides” (priority 2001, dated 2010).
Where two headings read alike, the source gives them in different places. Marks after values point to notes of the source that are not given here.

Assays:
[1] = test system: Rhodococcus sp. FZ4 nitrile hydratase; type: cell-based
Procedure: (§1) Nitrile hydratase activity was determined by incubating a reaction mixture comprising 3-cyanopyridine (1.0 M; 1.0 ml), potassium phosphate buffer (0.1 M, pH 7.0; 0.5 ml) and cell suspension (0.5 ml) with stirring at 20° C. for 5 min. The reaction was stopped by adding HCI (5 M; 0.1 ml). After filtration (0.2 μm filter) of the reaction mixture, the amount of nicotinamide produced was determined by means of HPLC (Waters Spherisorb 5 μ ODS2 (4.6×150 mm); KH2P04/H3P04 (10 mM; pH 2.8)/acetonitrile=9:1 (v/v); 1 ml/min; 230 nm). The total activity is expressed as μmol of nicotinamide produced/ (min×ml) and the specific activity is expressed as μmol of nicotinamide produced/(min×ml×OD610 nm).
(§2) The preculture medium of Table 2 was inoculated with strain Rhodococcus sp. FZ4 (DSM 13597), followed by incubation with shaking at 28° C. for 1 to 2 days. The preculture was transferred into the culture medium of Table 5, which contained different inducers, and cultured with shaking at 28° C. for 3 days. Nitrile hydratase activity was determined according to Example 1. Rhodococcus sp.

[2] = test system: Rhodococcus sp. FZ4; type: cell-based
Procedure: as §2

[3] = test system: Rhodococcus sp. FZ4 nitrile hydratase; assay: Substrate specificity of nitrile hydratase activity, resting cells; type: cell-based
Procedure: as §1
Rhodococcus sp. FZ4 nitrile hydratase activity with respect to different substrates was determined according to Example 1, except that the appropriate substrate was used instead of 3-cyanopyridine and that the HPLC conditions were modified according to the substrate used.

[4] = test system: Rhodococcus rhodochrous J1 nitrile hydratase; assay: Substrate specificity of nitrile hydratase activity (comparison strain); type: cell-based; conditions: compound as substrate; 3-cyanopyridine = 100
[5] = test system: Amycolatopsis sp. NA40 nitrile hydratase; assay: KM value for 3-cyanopyridine, resting cells; type: cell-based; conditions: 30° C., pH 7.0
Procedure: The reaction was stopped by adding HC1(2 M; 0.1 ml).
FZ4, Rhodococcus sp. GF270 (DSM 12211; WO 99/05306), Amycolatopsis sp. NA40 (DSM 11617; WO 99/05306) and Rhodococcus rhodochrous J1 were determined according to Example 11 using the respective microorganism.

[6] = test system: Amycolatopsis sp. NA40 nitrile hydratase; type: cell-based; conditions: incubation for 15 min
Procedure: as §1
(§3) […] The cells were removed, washed and resuspended in potassium phosphate buffer (0.1 M; pH 7.0).
(§4) The influence of 3-cyanopyridine concentration on the nitrile hydratase activities of Rhodococcus sp. FZ4, Rhodococcus sp. GF270, Amycolatopsis sp. NA40 and Rhodococcus rhodochrous J1 was determined according to Example 9 using the respective microorganism and the 3-cyanopyridine concentrations indicated in Table 10.

[7] = test system: Rhodococcus sp. FZ4 nitrile hydratase; type: cell-based; conditions: for Relative activity: incubation for 60 min
Procedure: as §1, §3, §4

[8] = test system: Rhodococcus sp. GF270 nitrile hydratase; type: cell-based; conditions: incubation for 60 min
Procedure: as §1
A cell suspension was incubated at different 3-cyano-30 pyridine concentrations in the range from 0 to 10% (w/v) at 20° C. for 60 min. The cells were removed, washed and resuspended in potassium phosphate buffer (0.1 M; pH 7.0).
as §4

[9] = test system: Rhodococcus rhodochrous J1 nitrile hydratase; type: cell-based; conditions: incubation for 15 min
Procedure: as §1, with “Nitrile hydratase activity was determined by incubating a reaction mixture comprising 3-cyanopyridine (1.0 M; 1.0 ml), potassium phosphate buffer (0.1 M, pH 7.0; 0.5 ml) and cell suspension (0.5 ml) with stirring at 20° C. for 5 min.” left out
as §3, §4

[10] = test system: purified Rhodococcus sp. FZ4 nitrile hydratase; assay: Substrate specificity of purified nitrile hydratase; type: biochemical
Procedure: A reaction mixture comprising nitrile hydratase solution (0.695 μmol/min; 0.025 ml), different substrates (0.500 ml) and potassium phosphate buffer (0.1 M; pH 7.0; 0.475 ml) was incubated at 20° C. for 5 to 10 min. The concentrations of the substrates used were in the range from 0.015 to 0.250 M. The reaction was stopped by adding MeOH. The amount of amide produced was determined by means of HPLC.

[11] = test system: purified Rhodococcus sp. FZ4 nitrile hydratase; assay: KM value for 3-cyanopyridine, purified nitrile hydratase; type: biochemical; conditions: purified enzyme, potassium phosphate buffer pH 7.0, 20° C.
Procedure: The reaction mixture was incubated at 20° C. for 10 min. The reaction was stopped by adding methanol and the amount of nicotinamide produced was determined by means of HPLC according to Example 1.

[12] = water; cited from earlier work
[13] = test system: Rhodococcus sp. FZ4 nitrile hydratase; type: cell-based; remark: listed apart in the source
Procedure: A reaction mixture comprising acetonitrile (0.2-19.0 M; 1.0-1.6 ml), aqueous NaCl solution (0.85% (w/v); 0.6-0.0 ml), potassium phosphate buffer (0.1 M; pH 7.0; 0.3 ml) and cell suspension (0.1 ml) was incubated with shaking at 20° C. for 10 min. The total reaction volume was 2.0 ml. The reaction was stopped by adding MeOH. The reaction mixture was centrifuged (12 000 rpm, 5 min) and the amount of acetamide produced was determined by means of HPLC according to Example 14.

[14] = test system: Rhodococcus sp. FZ4 nitrile hydratase; type: cell-based; conditions: pH 7
Procedure: The reaction was stopped by adding MeOH. The reaction mixture was centrifuged (12 000 rpm, 5 min) and the amount of acetamide produced was determined by means of HPLC according to Example 14.

[15] = test system: purified Rhodococcus sp. FZ4 nitrile hydratase; conditions: read-out: KM value for acetonitrile; pH 7
Procedure: The reaction mixture was incubated at 20° C. for 10 min. The reaction was stopped by adding methanol and the amount of acetamide produced was determined by means of HPLC according to Example 14.

[16] = test system: Rhodococcus sp. FZ4 nitrile hydratase; assay: Influence of cofactors on nitrile hydratase activity during cultivation; type: cell-based; conditions: basal medium with cofactor 0.004 g/l, 28° C., 2 to 3 days; substrate 3-cyanopyridine
Procedure: as §1
(§5) The preculture medium of Table 2 was inoculated with strain Rhodococcus sp. FZ4 (DSM 13597), followed by incubation with shaking at 28° C. for 1 to 2 days. The preculture was transferred into the basal medium of Table 3, which contains either CoCl 2 or FeSO4, and cultured with shaking at 28° C. for 2 to 3 days. Nitrile hydratase activity was determined according to Example 1.

[17] = test system: Rhodococcus sp. FZ4; assay: Influence of cofactors on growth during cultivation; type: cell-based; conditions: basal medium with cofactor 0.004 g/l, 28° C., 2 to 3 days
Procedure: as §5, with “1. A nitrile hydratase activity was present only when culturing Rhodococcus sp. FZ4 in the presence of cobalt.” for “1.”

[18] = test system: purified Rhodococcus sp. FZ4 nitrile hydratase; assay: Influence of metal ions on the activity of purified nitrile hydratase; type: biochemical; conditions: metal ions 1.0 mM; no addition = 100
Procedure: A solution comprising nitrile hydratase solution (0.695 μmol/min; 0.025 ml), potassium phosphate buffer (0.1 M; pH 7.0; 0.475 ml), distilled water (0.150 ml) and different potential inhibitors (0.100 ml) was incubated at 20° C. for 5 min. This was followed by the addition of 3-cyanopyridine (1.0 M; 0.250 ml). The concentration of the inhibitors in the reaction mixture was 1.0 mM. The reaction mixture was incubated at 20° C. for 10 min. The reaction was stopped by adding MeOH. The amount of nicotinamide produced was determined by means of HPLC according to Example 1.
The influence of metal ions on the activity of purified nitrile hydratase was carried out according to Example 24, but with the addition of metal ions instead of potential inhibitors. […]

[19] = test system: Rhodococcus sp. FZ4 nitrile hydratase; type: cell-based; remark: listed apart in the source
Procedure: as §1
(§6) A cell suspension was incubated at different nicotinamide concentrations in the range from 0 to 20% (w/v) at 20° C. for 24 h. The cells were removed, washed and resuspended in potassium phosphate buffer (0.1 M; pH 7.0).
as §4, with “nicotinamide” for “3-cyanopyridine”, “nicotinamide concentration” for “3-cyanopyridine concentrations”, “11.” for “10.”

[20] = test system: Rhodococcus sp. GF270 nitrile hydratase; type: cell-based
Procedure: as §1, §6
as §4, with “nicotinamide” for “3-cyanopyridine”, “nicotinamide concentration” for “3-cyanopyridine concentrations”, “11.” for “10.”

[21] = culture medium with inducer 0.2% (w/v), 28° C., 3 days, substrate 3-cyanopyridine
[22] = culture medium with inducer 0.2% (w/v), 28° C., 3 days

N#Cc1cccnc1 [3-Cyanopyridine]
Specific activity [1, 21]: 2.21 μmol/(min × ml × OD610 nm)
Total activity [1, 21]: 12.3 µmol/min/mL
Growth [2, 22]: 5.54 OD610 nm
Relative activity ([3]; compound as substrate, 3-cyanopyridine = 100, resting cells, 20° C.): 100%
Relative activity [4]: 100%
Km [5]: 41.7 mM
Relative activity ([6]; 3-cyanopyridine 2.5% (w/v)): 74^b %
Relative activity ([6]; 3-cyanopyridine 5.0% (w/v)): 56^b %
Relative activity ([6]; 3-cyanopyridine 7.5% (w/v)): 47^b %
Relative activity ([6]; 3-cyanopyridine 10.0% (w/v)): 16^b %
nitrile hydratase activity after incubation with 3-cyanopyridine ([7]; 0 to 20% (w/v) for 60 minutes, 20° C.): corresponded approximately to the original nitrile hydratase activity
Relative activity ([7]; 3-cyanopyridine 2.5% (w/v)): 100^a %
Relative activity ([7]; 3-cyanopyridine 5.0% (w/v)): 100^a %
Relative activity ([7]; 3-cyanopyridine 7.5% (w/v)): 100^a %
Relative activity ([7]; 3-cyanopyridine 10.0% (w/v)): 100^a %
Relative activity ([8]; 3-cyanopyridine 2.5% (w/v)): 100^a %
Relative activity ([8]; 3-cyanopyridine 5.0% (w/v)): 100^a %
Relative activity ([8]; 3-cyanopyridine 7.5% (w/v)): 100^a %
Relative activity ([8]; 3-cyanopyridine 10.0% (w/v)): 100^a %
Relative activity ([9]; 3-cyanopyridine 5.0% (w/v)): 86^b %
Relative activity ([9]; 3-cyanopyridine 10.0% (w/v)): 63^b %
Total activity ([10]; substrate concentration 0.25 M, corresponds to 100%): ^aTotal activity: 4,164 μmol/(min × .ml).
Relative activity ([10]; substrate concentration 0.25 M, reference = 100): 100^a %
Km [11]: 80.5 mM

CC(N)=O [Acetamide]
Specific activity [1, 21]: 4.98 μmol/(min × ml × OD610 nm)
Total activity [1, 21]: 21.6 µmol/min/mL
Growth [2, 22]: 4.37 OD610 nm
concentration of an acetamide solution saturated at 30° C. [12]: 220-230 g of acetamide in 100 ml of water

CC#N [Acetonitrile]
Specific activity [1]: 4.13 μmol/(min × ml × OD610 nm)
Total activity [1]: 18.4 µmol/min/mL
Growth [2]: 4.46 OD610 nm
Relative activity [3]: 646%
nitrile hydratase activity as a function of acetonitrile concentration [13]: nearly constant
nitrile hydratase activity after incubation with acetonitrile [14]: nearly constant
Relative activity [10]: 1 008%
Km [15]: 2.84 mM

[Cl-].[Cl-].[Co+2] [CoC12]
Specific activity [16]: 13.1 μmol/(min × ml × OD610 nm)
Total activity [16]: 38.1 µmol/min/mL
Growth [17]: 2.79 OD610 nm
Relative activity [18]: 110%

O=S(=O)([O-])[O-].[Fe+2] [FeSO4]
Specific activity [16]: 0.346 μmol/(min × ml × OD610 nm)
Total activity [16]: 0.989 µmol/min/mL
Growth [17]: 2.86 OD610 nm
Relative activity [18]: 113%

NC(=O)c1cccnc1 [Nicotinamide]
Specific activity [1]: 1.39 μmol/(min × ml × OD610 nm)
Total activity [1]: 4.94 µmol/min/mL
Growth [2]: 3.55 OD610 nm
Relative activity [19]: 100%
nitrile hydratase activity after incubation with nicotinamide [19]: corresponded approximately to the original nitrile hydratase activity
Relative activity [20]: 100%
